Results taken from patent US20230085307A1, “PYRIDAZINONE COMPOUND AND HERBICIDE” (NISSAN CHEMICAL CORPORATION, priority 2019, published 2023).

How the values were obtained:
blackgrass = assay: Test Example 5: herbicidal effect by foliage application, plastic box (Table 20, symbol J); format: in vivo, blackgrass (Alopecurus myosuroides); conditions: foliage application, 3 weeks after application
Summary of the method: (§1)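 Post-emergence foliar test in sterilized diluvial soil. Compound applied as water-diluted emulsion at a predetermined rate to 14-day-old plants; evaluation at three weeks.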

Chinese sprangletop = assay: Test Example 3: herbicidal effect by foliage application, Wagner pot (Table 18, symbol D); format: in vivo, chinese sprangletop (Leptochloa chinensis)
Summary of the method: (§2)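 Plants were sown in alluvial soil held under 0.1–0.5 cm standing water and grown 14 days in a greenhouse at 25–30 °C. An emulsifiable formulation, water-diluted to the set dose, was then sprayed onto the foliage, and effects were scored three weeks later using previously defined criteria.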

late watergrass = assay: Test Example 1: herbicidal activity, application before weed generation under submerged conditions (Table 16, symbol A); format: in vivo, late watergrass (Echinochloa oryzicola)
Summary of the method: (§3)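 Alluvial soil was flooded to 4 cm depth, weed seeds were sown mixed and 2.5-leaf rice seedlings were transplanted. On sowing day, the compound's emulsion, diluted in water to a set dose, was applied to the water surface. Plants grew at 25–30 °C and were scored 0–5 after three weeks.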

barnyard grass [1] = assay: Test Example 5: herbicidal effect by foliage application, plastic box (Table 20, symbol H); format: in vivo, barnyard grass (Echinochloa crus-galli); conditions: foliage application, 3 weeks after application
Summary of the method: as §1

velvetleaf = assay: Test Example 5: herbicidal effect by foliage application, plastic box (Table 20, symbol M); format: in vivo, velvetleaf (Abutilon theophrasti); conditions: foliage application, 3 weeks after application
Summary of the method: as §1

Italian ryegrass = assay: Test Example 4: herbicidal effect by soil treatment (Table 19, symbol K); format: in vivo, Italian ryegrass (Lolium multiflorum)
Summary of the method: (§4)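 Scoring uses the grading scale of an earlier test, three weeks post-application. Treatment consists of spraying a diluted emulsion formulation across the surface of sterilized diluvial soil in which seeds are buried near 1.5 cm deep; boxes are kept in a greenhouse between 25° C. and 30° C.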

barnyard grass [2] = assay: Test Example 3: herbicidal effect by foliage application, Wagner pot (Table 18, symbol H); format: in vivo, barnyard grass (Echinochloa crus-galli)
Summary of the method: as §2

Japanese bulrush = assay: Test Example 1: herbicidal activity, application before weed generation under submerged conditions (Table 16, symbol B); format: in vivo, Japanese bulrush (Schoenoplectus juncoides)
Summary of the method: as §3

wild oat = assay: Test Example 5: herbicidal effect by foliage application, plastic box (Table 20, symbol I); format: in vivo, wild oat (Avena fatua); conditions: foliage application, 3 weeks after application
Summary of the method: as §1

lambsquarters = assay: Test Example 4: herbicidal effect by soil treatment (Table 19, symbol O); format: in vivo, lambsquarters (Chenopodium album)
Summary of the method: as §4

chickweed = assay: Test Example 4: herbicidal effect by soil treatment (Table 19, symbol P); format: in vivo, common chickweed (Stellaria media)
Summary of the method: as §4

southern crabgrass = assay: Test Example 5: herbicidal effect by foliage application, plastic box (Table 20, symbol F); format: in vivo, southern crabgrass (Digitaria ciliaris); conditions: foliage application, 3 weeks after application
Summary of the method: as §1

persian speedwell = assay: Test Example 4: herbicidal effect by soil treatment (Table 19, symbol R); format: in vivo, Persian speedwell (Veronica persica)
Summary of the method: as §4

windgrass [3] = assay: Test Example 4: herbicidal effect by soil treatment (Table 19, symbol L); format: in vivo, windgrass (Apera spica-venti)
Summary of the method: as §4

oval-leafed pondweed = assay: Test Example 1: herbicidal activity, application before weed generation under submerged conditions (Table 16, symbol C); format: in vivo, oval-leafed pondweed (Monochoria vaginalis)
Summary of the method: as §3

windgrass [4] = assay: Test Example 5: herbicidal effect by foliage application, plastic box (Table 20, symbol L); format: in vivo, windgrass (Apera spica-venti); conditions: foliage application, 3 weeks after application
Summary of the method: as §1

rice flat sedge = assay: Test Example 3: herbicidal effect by foliage application, Wagner pot (Table 18, symbol E); format: in vivo, rice flat sedge (Cyperus iria)
Summary of the method: as §2

In the case of `C=C(C)COc1ccc(-c2sc3ccccc3c2-c2c(O)c(C)nn(C)c2=O)cc1` [1-208], the “effect on blackgrass (J)” value (blackgrass; 320 g/ha) is reported as 4 (Herbicidal rate of 70% or more and less than 90%), the “herbicidal effect on D (Chinese sprangletop), rating 0-5” value (shortened to “herbicidal effect on D”) (Chinese sprangletop; 320 g/ha) is reported as 5 (Herbicidal rate of 90% or more (almost completely withered)) and the “Herbicidal effect on A: late watergrass (grade 0-5)” value (late watergrass; 320 g/ha applied herbicide) is reported as 5 (Herbicidal rate of 90% or more (almost completely withered)). For the same compound, the “effect on barnyard grass (H)” value (barnyard grass [1]; 320 g/ha) was 5 (Herbicidal rate of 90% or more (almost completely withered)), the “effect on velvetleaf (M)” value (velvetleaf; 320 g/ha) was 5 (Herbicidal rate of 90% or more (almost completely withered)) and the “K: Italian ryegrass, herbicidal effect rating” value (“K: Italian ryegrass” for short) (Italian ryegrass; AAH 320 g/ha) was 4 (Herbicidal rate of 70% or more and less than 90%). The “herbicidal effect on H (barnyard grass), rating 0-5” value (“herbicidal effect on H” for short) (barnyard grass [2]; 320 g/ha) was 5 (Herbicidal rate of 90% or more (almost completely withered)), the “Herbicidal effect on B: Japanese bulrush (grade 0-5)” value (shortened to “Herbicidal effect on B”) (Japanese bulrush; 320 g/ha applied herbicide) was 5 (Herbicidal rate of 90% or more (almost completely withered)) and the “effect on wild oat (I)” value (wild oat; 320 g/ha) was 4 (Herbicidal rate of 70% or more and less than 90%). For the same compound, the “O: lambsquarters, herbicidal effect rating” value (“O: lambsquarters” for short) (lambsquarters; AAH 320 g/ha) was 0 (Herbicidal rate of 5% or less (almost no effect)), the “P: chickweed, herbicidal effect rating” value (chickweed; AAH 320 g/ha) was 3 (Herbicidal rate of 40% or more and less than 70%) and the “effect on southern crabgrass (F)” value (southern crabgrass; 320 g/ha) was 5 (Herbicidal rate of 90% or more (almost completely withered)). The “R: persian speedwell, herbicidal effect rating” value (from here on “R: persian speedwell”) (persian speedwell; AAH 320 g/ha) was 5 (Herbicidal rate of 90% or more (almost completely withered)), the “L: windgrass, herbicidal effect rating” value (windgrass [3]; AAH 320 g/ha) was 0 (Herbicidal rate of 5% or less (almost no effect)) and the “Herbicidal effect on C: oval-leafed pondweed (grade 0-5)” value (from here on “Herbicidal effect on C”) (oval-leafed pondweed; 320 g/ha applied herbicide) was 5 (Herbicidal rate of 90% or more (almost completely withered)). The “effect on windgrass (L)” value (windgrass [4]; 320 g/ha) was 4 (Herbicidal rate of 70% or more and less than 90%) and the “herbicidal effect on E (rice flat sedge), rating 0-5” value (“herbicidal effect on E” below) (rice flat sedge; 320 g/ha) was 4 (Herbicidal rate of 70% or more and less than 90%).
For `C=C(Br)COc1ccc(-c2sc3ccccc3c2-c2c(O)c(C)nn(C)c2=O)cc1` [1-215], the “effect on blackgrass (J)” value (blackgrass; 320 g/ha) was 2 (Herbicidal rate of 20% or more and less than 40%), the “herbicidal effect on D” value (Chinese sprangletop; 320 g/ha) was 5 (Herbicidal rate of 90% or more (almost completely withered)) and the “Herbicidal effect on A: late watergrass (grade 0-5)” value (late watergrass; 320 g/ha applied herbicide) was 5 (Herbicidal rate of 90% or more (almost completely withered)). The “effect on barnyard grass (H)” value (barnyard grass [1]; 320 g/ha) was 5 (Herbicidal rate of 90% or more (almost completely withered)), the “effect on velvetleaf (M)” value (velvetleaf; 320 g/ha) was 5 (Herbicidal rate of 90% or more (almost completely withered)) and the “K: Italian ryegrass” value (Italian ryegrass; AAH 320 g/ha) was 0 (Herbicidal rate of 5% or less (almost no effect)). The “herbicidal effect on H” value (barnyard grass [2]; 320 g/ha) was 5 (Herbicidal rate of 90% or more (almost completely withered)), the “Herbicidal effect on B” value (Japanese bulrush; 320 g/ha applied herbicide) was 4 (Herbicidal rate of 70% or more and less than 90%) and the “effect on wild oat (I)” value (wild oat; 320 g/ha) was 3 (Herbicidal rate of 40% or more and less than 70%). The “O: lambsquarters” value (lambsquarters; AAH 320 g/ha) was 3 (Herbicidal rate of 40% or more and less than 70%), the “P: chickweed, herbicidal effect rating” value (chickweed; AAH 320 g/ha) was 1 (Herbicidal rate of 5% or more and less than 20%) and the “effect on southern crabgrass (F)” value (southern crabgrass; 320 g/ha) was 2 (Herbicidal rate of 20% or more and less than 40%). For the same compound, the “R: persian speedwell” value (persian speedwell; AAH 320 g/ha) was 3 (Herbicidal rate of 40% or more and less than 70%), the “L: windgrass, herbicidal effect rating” value (windgrass [3]; AAH 320 g/ha) was 0 (Herbicidal rate of 5% or less (almost no effect)) and the “Herbicidal effect on C” value (oval-leafed pondweed; 320 g/ha applied herbicide) was 4 (Herbicidal rate of 70% or more and less than 90%). The “effect on windgrass (L)” value (windgrass [4]; 320 g/ha) was 5 (Herbicidal rate of 90% or more (almost completely withered)) and the “herbicidal effect on E” value (rice flat sedge; 320 g/ha) was 5 (Herbicidal rate of 90% or more (almost completely withered)).
For `Cc1nn(C)c(=O)c(-c2c(-c3ccc(OCCC4OCCO4)cc3)sc3ccccc23)c1O` [1-223], the “effect on blackgrass (J)” value (blackgrass; 246 g/ha) was 2 (Herbicidal rate of 20% or more and less than 40%), the “herbicidal effect on D” value (Chinese sprangletop; 246 g/ha) was 5 (Herbicidal rate of 90% or more (almost completely withered)) and the “Herbicidal effect on A: late watergrass (grade 0-5)” value (late watergrass; 246 g/ha applied herbicide) was 5 (Herbicidal rate of 90% or more (almost completely withered)). For the same compound, the “effect on barnyard grass (H)” value (barnyard grass [1]; 246 g/ha) was 5 (Herbicidal rate of 90% or more (almost completely withered)), the “effect on velvetleaf (M)” value (velvetleaf; 246 g/ha) was 5 (Herbicidal rate of 90% or more (almost completely withered)) and the “K: Italian ryegrass” value (Italian ryegrass; AAH 246 g/ha) was 0 (Herbicidal rate of 5% or less (almost no effect)). For the same compound, the “herbicidal effect on H” value (barnyard grass [2]; 246 g/ha) was 5 (Herbicidal rate of 90% or more (almost completely withered)), the “Herbicidal effect on B” value (Japanese bulrush; 246 g/ha applied herbicide) was 4 (Herbicidal rate of 70% or more and less than 90%) and the “effect on wild oat (I)” value (wild oat; 246 g/ha) was 3 (Herbicidal rate of 40% or more and less than 70%). For the same compound, the “O: lambsquarters” value (lambsquarters; AAH 246 g/ha) was 3 (Herbicidal rate of 40% or more and less than 70%), the “P: chickweed, herbicidal effect rating” value (chickweed; AAH 246 g/ha) was 0 (Herbicidal rate of 5% or less (almost no effect)) and the “effect on southern crabgrass (F)” value (southern crabgrass; 246 g/ha) was 4 (Herbicidal rate of 70% or more and less than 90%). For the same compound, the “R: persian speedwell” value (persian speedwell; AAH 246 g/ha) was 0 (Herbicidal rate of 5% or less (almost no effect)), the “L: windgrass, herbicidal effect rating” value (windgrass [3]; AAH 246 g/ha) was 0 (Herbicidal rate of 5% or less (almost no effect)) and the “Herbicidal effect on C” value (oval-leafed pondweed; 246 g/ha applied herbicide) was 4 (Herbicidal rate of 70% or more and less than 90%). The “effect on windgrass (L)” value (windgrass [4]; 246 g/ha) was 4 (Herbicidal rate of 70% or more and less than 90%) and the “herbicidal effect on E” value (rice flat sedge; 246 g/ha) was 4 (Herbicidal rate of 70% or more and less than 90%).
In the case of `CSCCSCc1ccc(-c2sc3ccccc3c2-c2c(O)c(C)nn(C)c2=O)cc1` [1-253], the “effect on blackgrass (J)” value (blackgrass; 320 g/ha) is reported as 0 (Herbicidal rate of 5% or less (almost no effect)), the “herbicidal effect on D” value (Chinese sprangletop; 320 g/ha) is reported as 3 (Herbicidal rate of 40% or more and less than 70%) and the “Herbicidal effect on A: late watergrass (grade 0-5)” value (late watergrass; 320 g/ha applied herbicide) is reported as 3 (Herbicidal rate of 40% or more and less than 70%). The “effect on barnyard grass (H)” value (barnyard grass [1]; 320 g/ha) was 5 (Herbicidal rate of 90% or more (almost completely withered)), the “effect on velvetleaf (M)” value (velvetleaf; 320 g/ha) was 5 (Herbicidal rate of 90% or more (almost completely withered)) and the “K: Italian ryegrass” value (Italian ryegrass; AAH 320 g/ha) was 0 (Herbicidal rate of 5% or less (almost no effect)). For the same compound, the “herbicidal effect on H” value (barnyard grass [2]; 320 g/ha) was 5 (Herbicidal rate of 90% or more (almost completely withered)), the “Herbicidal effect on B” value (Japanese bulrush; 320 g/ha applied herbicide) was 3 (Herbicidal rate of 40% or more and less than 70%) and the “effect on wild oat (I)” value (wild oat; 320 g/ha) was 0 (Herbicidal rate of 5% or less (almost no effect)). For the same compound, the “O: lambsquarters” value (lambsquarters; AAH 320 g/ha) was 3 (Herbicidal rate of 40% or more and less than 70%), the “P: chickweed, herbicidal effect rating” value (chickweed; AAH 320 g/ha) was 3 (Herbicidal rate of 40% or more and less than 70%) and the “effect on southern crabgrass (F)” value (southern crabgrass; 320 g/ha) was 1 (Herbicidal rate of 5% or more and less than 20%). For the same compound, the “R: persian speedwell” value (persian speedwell; AAH 320 g/ha) was 5 (Herbicidal rate of 90% or more (almost completely withered)), the “L: windgrass, herbicidal effect rating” value (windgrass [3]; AAH 320 g/ha) was 0 (Herbicidal rate of 5% or less (almost no effect)) and the “Herbicidal effect on C” value (oval-leafed pondweed; 320 g/ha applied herbicide) was 0 (Herbicidal rate of 5% or less (almost no effect)). For the same compound, the “effect on windgrass (L)” value (windgrass [4]; 320 g/ha) was 0 (Herbicidal rate of 5% or less (almost no effect)) and the “herbicidal effect on E” value (rice flat sedge; 320 g/ha) was 3 (Herbicidal rate of 40% or more and less than 70%).
